We go through 1 compound from patent US9265922B2, “System and method for improving outcome of cerebral ischemia” (ASTUCE, INC., priority 2012, dated 2016).

Entries after “also recorded” stand apart in the source; their conditions may differ.

One data set relates to intubated rodents. Kind of data set: Cerebral blood flow by cortical laser Doppler during intranasal nitric oxide in intubated rodents. Format: in vivo. How it is done: (§1) In intubated rodents, the inventors have shown that cerebral blood flow increases by 100% within 60 minutes of intranasal nitric oxide delivery.
Data set [1] deals with carotid artery occlusion model. Kind of data set: Carotid artery occlusion model, Speckle laser Doppler, intranasal nitric oxide. In kind it is in vivo, rodents. How it is done: as §1
Increase in cerebral blood flow is attributable to focal intranasal or intra-oral effect of nitric oxide rather than to systemic absorption of the gas. […] The effect on cerebral blood flow during intranasal delivery of nitric oxide with concomitant air inhalation into the lungs is therefore a focal effect on intranasal and intracranial vasculature attributable specifically to nitric oxide. […] In a non-intubated patient, nitric oxide inhalation can be prevented by occluding the nasal cavity anterior or posterior to the site of gas delivery. This is achieved by means of an anterior occlusion device such a rigid member, an expandable member, a compressible member, a sponge, a porous member, a plug, a balloon, foam and/or combinations of the foregoing, which prevent inhalation through the nostrils while maintaining a high concentration of nitric oxide in the nasal cavity. A non-intubated patient may be allowed to inhale air into the lungs during nitric oxide delivery into the nasal cavity by an optional central lumen with the distal orifice beyond the sites of nasal gas delivery and occlusion device.

In data set [2] the test system is patients with cerebral ischemia. Description: CT perfusion scanning in intubated patients with cerebral ischemia before and after intranasal nitric oxide. In kind it is in vivo, human.
For data set [3], the system named is humans (normal volunteers). Description: Tolerability of intranasal nitric oxide in normal volunteers. Format: in vivo, human. The note with it: high concentration, delivered intra-nasally and without inhalation. From the text:
While nitric oxide may be given intranasally and without inhalation into the lungs to intubated, comatose individuals the tolerability of intranasal nitric oxide in awake humans has not previously been investigated. The inventors have tested the effect of nitric oxide in humans (normal volunteers) during intranasal delivery. […] Therefore it can easily be tolerated by awake, non-intubated patients.

Regarding `[N]=O` [nitric oxide], the “cerebral blood flow (FIG. 8, cortical laser Doppler)” value in the data set on intubated rodents (during intranasal administration) was “doubling of cerebral blood flow”. Moreover, in the data set on intubated rodents (within 60 minutes of intranasal non-inhaled nitric oxide delivery), the “cerebral blood flow increase” value stood at 100%. Besides, the “perfusion in the ischemic hemisphere” value in data set [1] (both during the carotid occlusion and following ligature release (FIG. 9)) was “improved”. In addition, in data set [1] (intubated rodents given intranasal nitric oxide), the “cerebral ischemia (FIG. 9, Speckle laser Doppler tracing)” value was “reduction of cerebral ischemia”. Moreover, in data set [2] (Post Rx versus Pre Rx, left ischemic hemisphere), the “increase in perfusion on L (Cerebral Blood Flow, ACA Watershed)” value is 67% increase in. Moreover, the “Mean Transit Time, Changes in ACA Watershed” value in data set [2] (Post Rx, Pre Rx 4 sec delay) is listed as “Normalization”. Also, the “Cerebral Blood Flow, Changes in ACA Watershed” value in data set [2] (Post Rx, Pre Rx 37% lower on ischemic side) is “Normalization,”. Moreover, the “cerebral perfusion by CT perfusion scanning” value in data set [2] (intubated patients with cerebral ischemia, during treatment with intranasal nitric oxide (FIGS. 10, 11)) was “improvement in cerebral perfusion; also recorded: augmentation of cerebral perfusion and normalization of regional perfusion abnormalities”. The “tolerability of gas treatment” value in data set [3] is reported as “tolerated”.
